Measurements taken from patent US8497267B2, “Method for treating a sleep disorder with a dosage form of besylate salts of zopiclone or eszopiclone” (Sunovion Pharmaceuticals Inc., priority 2007, dated 2013).

Legend:
[1] = Aqueous solubility (24 hour equilibrated suspension in water, HPLC); assay type: physicochemical; details: for pH measured at saturation: saturated aqueous solution
Experimental: The aliquot was diluted and analyzed by HPLC (Waters). The data was compared to a standard curve generated from a set of solutions of known concentrations. The standard curve and the samples were analyzed using a HPLC using the following conditions: • Column: Symmetry C-18, 5 um, 15 cm×3.9 mm (Waters) • Mobile Phase: 0.05 M KH2PO4—0.01M Hexanesulfonic Acid/THF (1000:125) (Apparent pH 5.0) • Column Temp: 20-30° C. • Flow Rate: 1.0 mL/min • Wavelength: 305 nm • Run Time: 15 min (zopiclone retention time is 9.5-10 min)

[2] = Intrinsic dissolution, USP 28 method <1087>; assay type: physicochemical; details: isotonic 50 mM acetate (pH 4.5) buffer at 37° C., 50 rpm; for Intrinsic dissolution Average: average of Run 1 and Run 2
Experimental: The intrinsic dissolution (Table 3) was determined using USP 28 method <1087> (United States Pharmacopeia, The National Formulary, USP 28, 28th edition, Rockville, […]., 2005). Preparation of each test sample was performed as per USP 28 method <1087> by weighing and transferring the material to the die cavity and compressing for 1 minute at the minimum compression pressure necessary to form a nondisintegrating compacted pellet. The dissolution media used was isotonic 50 mM acetate buffer (pH 4.5) at 37° C. and speed was set at 50 rpm. Each run was halted at 5 min, irrespective of the percent dissolved. Each salt was run in duplicate.

[3] = water, equilibrated 24 hour at ambient

| SMILES | pH measured at saturation [1] | solubility thermodynamic at 24 h [1, 3] | Intrinsic dissolution Run 1 [2] | Intrinsic dissolution Run 2 [2] | Intrinsic dissolution Average [2] | Solubility [1, 3] |
| --- | --- | --- | --- | --- | --- | --- |
| CN1CCN(C(=O)O[C@H]2c3nccnc3C(=O)N2c2ccc(Cl)cn2)CC1.O=S(=O)(O)c1ccccc1 [Besylate, (S)-Zopiclone Besylate] | 4.4 | 34 mg/mL | 3.3 mgA/cm^2/min | 2.6 mgA/cm^2/min | 2.9 mgA/cm^2/min | – |
| CN1CCN(C(=O)O[C@H]2c3nccnc3C(=O)N2c2ccc(Cl)cn2)CC1 [Free base, (S)-(6-(5-chloro-2-pyridyl)-5-[(4-methyl-1-piperazinyl)carbonyloxy]-7-oxo-6,7-dihydro-5H-pyrrolo[3,4-b]pyrazine)] | 7.6 | – | 0.6 mgA/cm^2/min | 0.5 mgA/cm^2/min | 0.5 mgA/cm^2/min | 0.2^1 mgA/mL |
